Source: patent publication US4264736A, “Antibiotic 890A10” (Merck & Co., Inc., priority 1979, dated 1981)

Tests used:
Bacillus sp. MB No. 633 = test: Antibiotic spectrum profile, agar zone of inhibition; type: cell-based; settings: 0.015 ml of 9.5 μg/ml aqueous solution, 25° C., read-out: Inhib. Zone Diam.
Experimental: (§1) The test to determine the antibiotic spectrum profiles of antibiotic 890A10 is carried out by application of a 0.015 ml. droplet of a 9.5 μg./ml. aqueous solution of the antibiotic on the surface of a 100×15 mm. petri plate containing 3 ml. of seeded nutrient agar plus 0.2% yeast extract which is incubated at 25° C.

[1] = system: Serratia marcescens ATCC 890; test: as above; type: cell-based; settings: ATCC890, 0.015 ml of 9.5 μg/ml aqueous solution, 25° C., read-out: Inhib. Zone Diam.
Experimental: as §1

[2] = system: Aerobacter aerogenes MB No. 835; test: as above; type: cell-based; settings: Klebsiella aerogenes, MBNO.835, 0.015 ml of 9.5 μg/ml aqueous solution, 25° C., read-out: Inhib. Zone Diam.
Experimental: as §1

[3] = system: Escherichia coli MB No. 1418; test: as above; type: cell-based; settings: MBNO.1418, 0.015 ml of 9.5 μg/ml aqueous solution, 25° C., read-out: Inhib. Zone Diam.
bacterial β-lactamases = test: Inhibition of bacterial β-lactamases (statement); type: biochemical
[4] = system: Streptococcus faecium MB No. 2820; test: Antibiotic spectrum profile, agar zone of inhibition; type: cell-based; settings: Enterococcus faecium, MBNO.2820, 0.015 ml of 9.5 μg/ml aqueous solution, 25° C., read-out: Inhib. Zone Diam.
[5] = system: Alcaligenes faecalis ATCC 213; test: as above; type: cell-based; settings: ATCC213, 0.015 ml of 9.5 μg/ml aqueous solution, 25° C., read-out: Inhib. Zone Diam.
[6] = system: Xanthomonas vesicatoria MB No. 815; test: as above; type: cell-based; settings: MBNO.815, 0.015 ml of 9.5 μg/ml aqueous solution, 25° C., read-out: Inhib. Zone Diam.
[7] = system: Staphylococcus aureus ATCC 6538 P; test: as above; type: cell-based; settings: ATCC6538, 0.015 ml of 9.5 μg/ml aqueous solution, 25° C., read-out: Inhib. Zone Diam.
[8] = system: Protcus vulgaris MB No. 1012; test: as above; type: cell-based; settings: 0.015 ml of 9.5 μg/ml aqueous solution, 25° C., read-out: Inhib. Zone Diam.
[9] = system: Brucella bronchiseptica ATCC 4617; test: microbe, parasite or virus in culture; type: cell-based; settings: Bordetella bronchiseptica, ATCC4617, read-out: Inhib. Zone Diam.
[10] = system: Salmonella gallinarum MB No. 1287; test: Antibiotic spectrum profile, agar zone of inhibition; type: cell-based; settings: Salmonella enterica, 0.015 ml of 9.5 μg/ml aqueous solution, 25° C., read-out: Inhib. Zone Diam.
[11] = system: Vibrio percolans ATCC 8461; test: Antibiotic spectrum profile, agar zone of inhibition, with penicillinase; type: cell-based; settings: Comamonas terrigena, ATCC8461; 0.015 ml of 9.5 μg/ml aqueous solution; 25° C.; Vibrio Percolans ATCC 8461 + 2×10^5 u/ml penicillinase; read-out: Inhib. Zone Diam.
[12] = system: Pseudomonas aeruginosa MB No. 979; test: Antibiotic spectrum profile, agar zone of inhibition; type: cell-based; settings: MBNO.979, 0.015 ml of 9.5 μg/ml aqueous solution, 25° C., read-out: Inhib. Zone Diam.
[13] = system: Streptococcus agalactiae MB No. 2875; test: as above; type: cell-based; settings: MBNO.2875, 0.015 ml of 9.5 μg/ml aqueous solution, 25° C., read-out: Inhib. Zone Diam.
[14] = system: Proteus vulgaris MB No. 2112 (episome); test: as above; type: cell-based; settings: read-out: Inhib. Zone Diam.
[15] = system: Proteus vulgaris ATCC 21100; test: as above; type: cell-based; settings: ATCC21100, 0.015 ml of 9.5 μg/ml aqueous solution, 25° C., read-out: Inhib. Zone Diam.
[16] = system: Pseudomonas stutzeri ATCC 11607; test: as above; type: cell-based; settings: Stutzerimonas stutzeri, ATCC11607, 0.015 ml of 9.5 μg/ml aqueous solution, 25° C., read-out: Inhib. Zone Diam.
Sarcina lutea ATCC 9341 = test: as above; type: cell-based; settings: Micrococcus luteus, ATCC9341, 0.015 ml of 9.5 μg/ml aqueous solution, 25° C., read-out: Inhib. Zone Diam.
[17] = Electrophoresis at neutral pH; type: physicochemical; settings: 50 volts/cm, 0.03 M potassium phosphate buffer, pH 7.1, 30 minutes
Experimental: Antibiotic 890A10 is an acidic substance which migrates toward the positive pole on electrophoresis at neutral pH. At a gradient of 50 volts/cm. in 0.03 M potassium phosphate buffer, pH 7.1, the antibiotic moves 8.0 cm. in 30 minutes, compared with a movement of 4.0 cm. for 890A1. The disodium salt is a white or slightly yellow powder as lyophilized from aqueous solution. Under acidic conditions in aqueous solution, the antibiotic is unstable, and the free acid form has not been isolated.

CC(=O)NCCSC1=C(C(=O)O)N2C(=O)C(C(C)OS(=O)(=O)O)C2C1 (centres unmarked) [Antibiotic 890A10]
zone of inhibition at 9.5 µg/mL (Bacillus sp. MB No. 633): 30 mm
zone of inhibition at 9.5 µg/mL [1]: 15 mm
zone of inhibition at 9.5 µg/mL [2]: 22 mm
zone of inhibition at 9.5 µg/mL [3]: 25 mm
inhibition of bacterial β-lactamases (bacterial β-lactamases): potent inhibitor of bacterial β-lactamases
zone of inhibition at 9.5 µg/mL [4]: 0 mm
zone of inhibition at 9.5 µg/mL [5]: 24 mm
zone of inhibition at 9.5 µg/mL [6]: 20 mm
zone of inhibition at 9.5 µg/mL [7]: 20 mm
zone of inhibition at 9.5 µg/mL [8]: 19 mm
zone of inhibition at 9.5 µg/mL [9]: 0 mm
zone of inhibition at 9.5 µg/mL [10]: 28 mm
zone of inhibition at 9.5 µg/mL [11]: 25 mm
zone of inhibition at 9.5 µg/mL [12]: 0 mm
zone of inhibition at 9.5 µg/mL [13]: 29 mm
zone of inhibition at 9.5 µg/mL [14]: 30 mm
zone of inhibition at 9.5 µg/mL [15]: 30 mm
zone of inhibition at 9.5 µg/mL [16]: 0 mm
zone of inhibition at 9.5 µg/mL (Sarcina lutea ATCC 9341): 33 mm
movement toward the positive pole on electrophoresis [17]: 8.0 cm
